Data as given in patent publication US4478834A, “Dihydropyridines and their use in the treatment of asthma” (USV Pharmaceutical Corporation, priority 1983, dated 1984).

Assays:
[1] = system: Cyclic Nucleotide Phosphodiesterase (cNUC-PDE); test: Cyclic Nucleotide Phosphodiesterase (cNUC-PDE) Assay; format: biochemical; conditions: compounds initially tested at 100 μM; enzyme source (dog heart or rat mast cell) not given
Protocol: Cyclic Nucleotide Phosphodiesterase (cNUC-PDE) Assay: CNUC-PDE was measured by a modification of the one-step procedure described by Thompson et al. (1979). The reaction was carried out in 7 ml scintillation vials. The reaction mixture consisted of 5 mM MgCl2., 50 mM tris-(hydroxymethyl)aminomethane buffered to pH 8.0 at 37° C. with hydrochloric acid (Tris-chloride), 1-2×10^5 cpm ^3 H-labeled cyclic nucleotide substrate, appropriate concentration of non-labeled cyclic nucleotide, 25 μg/ml lyophilized Ophiophagus hannah venom and appropriate enzyme for linear reaction conditions. The timed reactions were initiated by the addition of an enzyme, incubated at 37° C. for appropriate times for linear reaction rates, and stopped with the addition of 0.8 ml of 50% (v/v) AG 1×8 (200-400 mesh) ion-exchange resin in 50% (v/v) ethanol-Tris-acetate buffer (pH 8.0). The vials were vortexed and the resin mixture allowed to equilibrate for 15 min at 4° C. Scintillation fluid (4.5 ml) was added and radioactivity quantitated in a liquid scintillation counter.
Dog Heart Enzyme Preparations: Mongrel dogs were overdosed with Nembutal® and their hearts surgically removed. […]
Mast Cell Enzyme Preparations: Peritoneal cells were collected and mast cells purified by a procedure similar to that described by Yurt et al., (1977). […] The cells ([…]) were counted with a haemocytometer. […]

[2] = system: guinea pig lung; test: guinea pig lung inhibition
Protocol: The activity of a compound is expressed as % inhibition of net antigen-induced histamine release. In the case of an active compound the concentration of the compound required for 50% inhibition for AIR (I50) is determined.

[3] = Blood pressure in spontaneously hypertensive [SHR] rats; format: in vivo, rat; conditions: intraperitoneal (ip) dose of 100 mg/Kg, over 2 hours duration
Protocol: In spontaneously hypertensive [SHR] rats (as described in Laffan, R. J., Patterson, A., Hitch, S. W., Jeunelot, Technique for Prolonged Continuous Recording of Blood Pressures of Unrestricted Rats, Cardiovascular Research, Vol. 6, pp. 319-24, 1972),3,10b-dihydro-2,4-dimethyl-5-oxo-5H[1]benzopyrano[3,4-C]pyridine-1-carboxylic acid ethyl ester (Example 4D) administered intraperitoneal (ip) dose of 100 mg/Kg reduced blood pressure by 17-22% over 2 hours duration.

SMILES | PDE inhibition [1] | guinea pig lung inhibition [2] | reduced blood pressure [3]
CCOC(=O)C1=C(C)NC(C)=C2C(=O)Nc3ccccc3C21 (stereo not drawn) [Example 3C, 3,5,6,10b-Tetrahydro-2,4-dimethyl-5-oxo-benzo[c][2,7]naphthyridine-1-carboxylic acid ethyl ester] | < 60% | < 50% | –
CCOC(=O)C1=C(C)NC(C)=C2C(=O)Oc3ccccc3C12 (stereo not drawn) [Example 4D, 3,10b-Dihydro-2,4-dimethyl-5-oxo-5H[1]benzo-pyrano[3,4-c]pyridine-1-carboxylic acid ethyl ester] | – | – | 17-22%
